# Measured values reported in patent US20250134095A1, “COMPOSITIONS FOR ORGAN AND TISSUE PRESERVATION” (Albert Einstein College of Medicine, priority 2021, published 2025).
# “Also recorded” adds a separate entry of the source. Peptide text beside a SMILES is read from it. * marks the point of attachment. Cbz = O=C(OCc1ccccc1)*; CH2F = FC*
# How the values were obtained:
# mouse kidneys = assay: TUNEL staining for cell death in cold stored mouse kidneys; conditions: 2 mg/kg total mouse weight in University of Wisconsin cold preservation solution, flush at organ recovery and storage, 72 hours cold storage
# Source text: (§1) Methods: TUNEL Staining and Quantification. Frozen kidney sections were fixed with 4% paraformaldehyde and stained according to standard protocols for the In Situ Cell Death Detection Kit, TMR red (Millipore Sigma). The number of DAPI positive and TUNEL positive cells were quantified using cell counter macros in ImageJ across mouse, pig, and human samples.
# (§2) Murine and Porcine Kidney Recoveries. Mouse and pig kidneys were recovered using standard organ recovery protocols. Prior to flushing the abdominal cavity with preservation solution, mice and pigs were given heparin to help increase flow and prevent clotting within the system.
# Bax KO or Wildtype mice (3× per group) were euthanized and then organs recovered following standard organ transplant procedures. […] At the proscribed time points, kidneys were snap frozen for subsequent cell death assessment by fluorescent TUNEL staining of frozen sections collected on an EVOS2 scope. Quantification of TUNEL staining was performed with custom matlab code following standard image analysis procedures.
# (§3) Mice were flushed with BAI supplemented University of Wisconsin solution (2 mg/kg total mouse weight) at time of organ recovery. Mouse kidneys were stored in the same concentration of BAI1 supplemented preservation solution that was used to flush the mice at time of organ harvest. Pig kidneys were flushed with 500 mL of University of Wisconsin solution supplemented with BAI1 at 10 μg/mL. They were then stored at 4° C. in 500 mL of University of Wisconsin solution supplemented with BAI1 at 10 μg/mL for 72 hours.
# pig kidneys = assay: TUNEL staining for cell death in cold stored pig kidneys; conditions: flushed and stored at 4° C. in University of Wisconsin solution with 10 μg/mL, 72 hours
# Source text: as §1, §2, §3
# human organ culture = assay: Cell death in human organ culture model (kidney)
# Description: as §1
# To better appreciate how kidneys respond to cold ischemia, a series of […] kidneys was biopsied at times from 12 to 72 hours of cold storage. To decreased observed cell death, a Bax inhibitor (BAI1) was tested in a human organ culture model.
# To assess the extent of cell death during cold preservation, a series of eleven human kidneys were repeatedly biopsied at times from 12 to 72 hours of cold storage. […] Cell death increased over time and became apparent in marginal donors between 30-36 hours of cold storage. Human kidneys with the cell death phenotype were also shown to have distinct upregulation of metabolites (e.g. xylose, isothreonic acid, 3-hydroxy-3-methylglutaric acid, conduritol-beta-epoxide, hippuric acid, pseudo uridine, hydroxyproline dipeptide, 4-hydroxyhippuric acid) as compared to the younger, healthier cohort of organs.
Compound,cell death during prolonged cold storage (TUNEL staining) (mouse kidneys),cell death during prolonged cold storage (TUNEL staining) (pig kidneys),cell death in human organ culture after a period of warm injury (human organ culture; after a period of warm injury),cell death in human organ culture during cold storage (human organ culture; during cold storage)
OC(CN1CCNCC1)Cn1c2ccc(Br)cc2c2cc(Br)ccc21 (stereo not shown) [BAI1],prevents cell death; also recorded: abrogates cell death,prevents cell death,significantly decreased cell death,significantly decreased cell death
COC(=O)C[C@H](NC(=O)[C@H](C)NC(=O)[C@@H](NC(=O)OCc1ccccc1)C(C)C)C(=O)CF [Z-VAD-FMK] (Cbz-Val-Ala-Asp(OMe)-CH2F),did not appear to reduce the amount of cell death,,,
CCOC(=O)c1ccc(NC2CCCCC2)c(N)c1 [ferrostatin-1],did not appear to reduce the amount of cell death,,,
CN1C(=O)C(Cc2c[nH]c3ccccc23)NC1=S (stereo not shown) [necrostatin-1],did not appear to reduce the amount of cell death,,,
